Columns and labels:
[1] = tested on: T. gondii RH strain tachyzoites; assay: In vitro T. gondii growth inhibition in HeLa host cells (MTT); format: cell-based, Toxoplasma gondii; conditions: for IC50: Toxoplasma gondii, median inhibitory concentration, tachyzoite inhibition, HeLa host cells, 24 h; for SI (selectivity index): IC50 in HeLa cells/IC50 in T. gondii
Description: (§1) The cytotoxicity of compounds was determined using the previously published thiazolyl blue-based colorimetric method. For this, HeLa cells were used as host cells and their ability to resist invasion by T. gondii RH strain tachyzoites in vitro was checked. The cells were plated in 96-well plates at an appropriate density to ensure exponential growth throughout the experimental period (3 × 10^3 cells per well) and then allowed to adhere for 24 h at 37 °C. The cells were infected with T. gondii (1.5 × 10^4 tachyzoites/well), followed by incubation for 24 h. All compounds were prepared in dimethyl sulfoxide (DMSO) at a stock concentration of 100 mM. Serial dilutions (1–1000 μM) of each compound were tested. Spiramycin was used as a positive control. After 24 h of incubation, 10 μL of MTT solution were added to each well and cells were incubated for a further 2 h. The optical density (OD) was read on a microplate reader at a wavelength of 492 nm. The IC50 in HeLa cells, IC50 in T. gondii and selectivity index were calculated using Microsoft Excel.

HeLa cells = assay: Cytotoxicity on HeLa host cells (MTT); format: cell-based; conditions: Homo sapiens, HeLa, median toxicity dose, cytotoxicity against host cells, 24 h
Description: as §1

Structure (SMILES) | melting point [°C] | IC50 [1] [µM] | IC50 (HeLa cells) [µM] | SI (selectivity index) [1]
C[C@H]1[C@H](C)CC[C@]2(C(=O)O)CC[C@]3(C)C(=CC[C@@H]4[C@@]5(C)C/C(=C\c6cn(-c7ccc(F)cc7)nn6)C(=O)C(C)(C)[C@@H]5CC[C@]43C)[C@H]12 [1d, (1S,2R,4aS,6aS,6bR,8aR,12aR,12bR,14bS,E)-11-((1–(4-fluorophenyl)-1H-1,2,3-triazol-4-yl)methylene)-1,2,6a,6b,9,9,12a-heptamethyl-10-oxo-1,3,4,5,6,6a,6b,7,8,8a,9,10,11,12,12a,12b,13,14b-octadecahydropicene-4a(2H)-carboxylic acid] | > 250 | > 1000 | > 1000 | 
COc1ccccc1-n1cc(/C=C2\C[C@]3(C)[C@H]4CC=C5[C@@H]6[C@@H](C)[C@H](C)CC[C@]6(C(=O)O)CC[C@@]5(C)[C@]4(C)CC[C@H]3C(C)(C)C2=O)nn1 [1i, (1S,2R,4aS,6aS,6bR,8aR,12aR,12bR,14bS,E)-11-((1–(2-methoxyphenyl)-1H-1,2,3-triazol-4-yl)methylene)-1,2,6a,6b,9,9,12a-heptamethyl-10-oxo-1,3,4,5,6,6a,6b,7,8,8a,9,10,11,12,12a,12b,13,14b-octadecahydropicene-4a(2H)-carboxylic acid] | > 250 | > 1000 | > 1000 | 
C[C@H]1[C@H](C)CC[C@]2(C(=O)O)CC[C@]3(C)C(=CC[C@@H]4[C@@]5(C)C/C(=C\c6cn(-c7ccc(Cl)c(Cl)c7)nn6)C(=O)C(C)(C)[C@@H]5CC[C@]43C)[C@H]12 [1f, (1S,2R,4aS,6aS,6bR,8aR,12aR,12bR,14bS,E)-11-((1–(3,4-dichlorophenyl)-1H-1,2,3-triazol-4-yl)methylene)-1,2,6a,6b,9,9,12a-heptamethyl-10-oxo-1,3,4,5,6,6a,6b,7,8,8a,9,10,11,12,12a,12b,13,14b-octadecahydropicene-4a(2H)-carboxylic acid] | > 250 | 462 | 408 | 0.88
C[C@H]1[C@H](C)CC[C@]2(C(=O)O)CC[C@]3(C)C(=CC[C@@H]4[C@@]5(C)C/C(=C\c6cn(-c7ccccc7Br)nn6)C(=O)C(C)(C)[C@@H]5CC[C@]43C)[C@H]12 [1g, (1S,2R,4aS,6aS,6bR,8aR,12aR,12bR,14bS,E)-11-((1–(2-bromophenyl)-1H-1,2,3-triazol-4-yl)methylene)-1,2,6a,6b,9,9,12a-heptamethyl-10-oxo-1,3,4,5,6,6a,6b,7,8,8a,9,10,11,12,12a,12b,13,14b-octadecahydropicene-4a(2H)-carboxylic acid] |  | 302 | 240 | 0.80
C[C@H]1[C@H](C)CC[C@]2(C(=O)O)CC[C@]3(C)C(=CC[C@@H]4[C@@]5(C)C/C(=C\c6cn(-c7ccccc7I)nn6)C(=O)C(C)(C)[C@@H]5CC[C@]43C)[C@H]12 [1h, (1S,2R,4aS,6aS,6bR,8aR,12aR,12bR,14bS,E)-11-((1–(2-iodophenyl)-1H-1,2,3-triazol-4-yl)methylene)-1,2,6a,6b,9,9,12a-heptamethyl-10-oxo-1,3,4,5,6,6a,6b,7,8,8a,9,10,11,12,12a,12b,13,14b-octadecahydropicene-4a(2H)-carboxylic acid] |  | 274 | 230 | 0.84
COc1cc(-n2cc(/C=C3\C[C@]4(C)[C@H]5CC=C6[C@@H]7[C@@H](C)[C@H](C)CC[C@]7(C(=O)O)CC[C@@]6(C)[C@]5(C)CC[C@H]4C(C)(C)C3=O)nn2)cc(OC)c1OC [1j, (1S,2R,4aS,6aS,6bR,8aR,12aR,12bR,14bS,E)-1,2,6a,6b,9,9,12a-heptamethyl-10-oxo-11-((1–(3,4,5-trimethoxyphenyl)-1H-1,2,3-triazol-4-yl)methylene)-1,3,4,5,6,6a,6b,7,8,8a,9,10,11,12,12a,12b,13,14b-octadecahydropicene-4a(2H)-carboxylic acid] |  | 301 | 354 | 1.17
C[C@H]1[C@H](C)CC[C@]2(C(=O)OCCn3cnnc3-c3ccccc3)CC[C@]3(C)C(=CC[C@@H]4[C@@]5(C)CCC(O)C(C)(C)[C@@H]5CC[C@]43C)[C@H]12 (stereo partly drawn) [3a, 2 –(3-phenyl-4H-1,2,4-triazol-4-yl)ethyl(1S,2R,4aS,6aS,6bR,8aR,12aR,12bR,14bS)-10-hydroxy-1,2,6a,6b,9,9,12a-heptamethyl-1,3,4,5,6,6a,6b,7,8,8a,9,10,11,12,12a,12b,13,14b-octadecahydropicene-4a(2H)-carboxylate] |  | 88 | 102 | 1.15
C[C@H]1[C@H](C)CC[C@]2(C(=O)OCCn3cnnc3-c3ccc(F)cc3)CC[C@]3(C)C(=CC[C@@H]4[C@@]5(C)CCC(O)C(C)(C)[C@@H]5CC[C@]43C)[C@H]12 (stereo partly drawn) [3c, 2 –(3-(4-fluorophenyl)-4H-1,2,4-triazol-4-yl)ethyl(1S,2R,4aS,6aS,6bR,8aR,12aR,12bR,14bS)-10-hydroxy-1,2,6a,6b,9,9,12a-heptamethyl-1,3,4,5,6,6a,6b,7,8,8a,9,10,11,12,12a,12b,13,14b-octadecahydropicene-4a(2H)-carboxylate] |  | 61.4 | 88.2 | 1.44

The next lines start with results.

melting point [°C] | Structure (SMILES) | IC50 [1] [µM] | IC50 (HeLa cells) [µM] | SI (selectivity index) [1]
186 to 187 | Cc1ccc(-n2cc(CNC(=O)COC(=O)[C@]34CC[C@@H](C)[C@H](C)[C@H]3C3=CC[C@@H]5[C@@]6(C)CCC(O)C(C)(C)[C@@H]6CC[C@@]5(C)[C@]3(C)CC4)nn2)cc1 (stereo partly drawn) [2d, (1S,2R,4aS,6aS,6bR,8aR,12aR,12bR,14bS)-2-oxo-2-((1-p-tolyl-1H-1,2,3-triazol-4-yl)methylamino)ethyl-10-hydroxy-1,2,6a,6b,9,9,12a-heptamethyl-1,2,3,4,4a,5,6,6a,6b,7,8,8a,9,10,11,12,12a,12b,13,14b-icosahydropicene-4a-carboxylate] | > 1000 | > 1000 | 
176 to 178 | C[C@H]1[C@H](C)CC[C@]2(C(=O)OCC(=O)NCc3cn(-c4ccc(Cl)cc4)nn3)CC[C@]3(C)C(=CC[C@@H]4[C@@]5(C)CCC(O)C(C)(C)[C@@H]5CC[C@]43C)[C@H]12 (stereo partly drawn) [2b, (1S,2R,4aS,6aS,6bR,8aR,12aR,12bR,14bS)-2-((1–(4-chlorophenyl)-1H-1,2,3-triazol-4-yl)methylamino)-2-oxoethyl-10-hydroxy-1,2,6a,6b,9,9,12a-heptamethyl-1,2,3,4,4a,5,6,6a,6b,7,8,8a,9,10,11,12,12a,12b,13,14b-icosahydropicene-4a-carboxylate] | > 1000 | 329 | 
203 to 204 | C[C@H]1[C@H](C)CC[C@]2(C(=O)OCC(=O)NCc3cn(-c4ccc(Cl)c(Cl)c4)nn3)CC[C@]3(C)C(=CC[C@@H]4[C@@]5(C)CCC(O)C(C)(C)[C@@H]5CC[C@]43C)[C@H]12 (stereo partly drawn) [2e, (1S,2R,4aS,6aS,6bR,8aR,12aR,12bR,14bS)-2-((1–(3,4-dichlorophenyl)-1H-1,2,3-triazol-4-yl)methylamino)-2-oxoethyl-10-hydroxy-1,2,6a,6b,9,9,12a-heptamethyl-1,2,3,4,4a,5,6,6a,6b,7,8,8a,9,10,11,12,12a,12b,13,14b-icosahydropicene-4a-carboxylate] | > 1000 | > 1000 | 

From article PMC6407578, “Synthesis and biological evaluation of ursolic acid derivatives bearing triazole moieties as potential anti-Toxoplasma gondii agents” (Journal of Enzyme Inhibition and Medicinal Chemistry, 2019)
